What was measured:
[1] = Cytotoxicity assay, U937 cell line; format: cell-based; conditions: human, U937 cells
Procedure: RAW264.7 cells and U937 cells in the logarithmic growth phase were counted and diluted, and the concentrations of the single-cell suspensions of the two types of cells were adjusted to 5 × 10^4 cells/mL and 3 × 10^4 cells/mL, respectively. After thorough mixing, the cells were seeded into a 96-well plate, with 100 μL of cell suspension added to each well. Prepare the working solution of test compounds using the corresponding medium as the solvent, with the concentration of working solution being 2 times the final test concentration (2.5 μM, 5 μM, 10 μM, 20 μM, and 40 μM). Twenty-four hours after cell seeding, the compound working solutions were added to the compound test wells, and the same volume of medium was added to the negative control wells, followed by continuous incubation for another 24 h. Only the wells with the same volume but without cells served as the blank control group. The CellTiter-Lumi™ luminescent cell viability assay kit (Beyotime Biotechnology, Shanghai, China, C0065XL) was used to detect cell viability according to the standard operating procedures. Each group of tests was independently repeated at least 3 times, and IC50 values were calculated using SPSS 10.0.

PR3 [2] = test: NSPs activity in U937 cells after 5 days of treatment, PR3; format: cell-based, human; conditions: U937, 10 μM
Procedure: (§1) U937 cells in the logarithmic growth phase were collected and equally divided into six portions. Four of these portions were treated with DMSO solutions of the test compound at varying concentrations to achieve final concentrations of 1.25, 2.5, 5, and 10 μM, respectively. An equal volume of DMSO was added to one portion as a blank control, while another portion treated with a DMSO solution of AZD7986 served as a positive control. The cells were cultured under standard U937 conditions for 5 consecutive days, with daily medium changes and fresh compound treatments administered using the same protocol. Following 5 days of treatment, cells were harvested, washed twice thoroughly with phosphate-buffered saline, and lysed in phosphate-buffered saline containing 1% Triton X-100. The lysates were centrifuged to collect the supernatant, and protein concentrations were determined as previously described to ensure equal total protein loading across all samples. The prepared samples were stored at −20 °C until further analysis. Different assay buffers were prepared for diluting samples and measuring the activities of specific NSPs: a buffer containing 50 mM Tris and 750 mM NaCl (pH 7.4) was used for NE and PR3; a buffer containing 50 mM Tris, 750 mM NaCl, 5 mM EDTA (pH 7.4) was used for Cat G; and a buffer containing 25 mM MES, 50 mM NaCl, 5 mM DTT (pH 6.0) was used for CTSC. […]

NE [3] = test: NSPs activity in U937 cells after 5 days of treatment, NE; format: cell-based, human; conditions: U937, 10 μM
Procedure: as §1

PR3 [4] = test: AIA model, serum PR3 activity; format: in vivo, Sprague-Dawley rats; conditions: rat AIA, high dose 60 mg/kg gavage, 15 days
Procedure: Thirty 4-week-old male Sprague-Dawley rats (weighing 120–130 g) were randomly divided into 6 groups (5 rats per group) after 1 week of adaptive feeding, namely the normal group, model group, low-dose experimental group (15 mg/kg), medium-dose experimental group (30 mg/kg), high-dose experimental group (60 mg/kg), and positive control group (30 mg/kg). Starting from Day 0 of the experiment, rats in the administration groups and model group were injected intradermally with 0.1 mL of CFA into the left hind paw to induce AIA, while rats in the normal group were injected intradermally with an equal volume (0.1 mL) of normal saline as a control. After 13 consecutive days of feeding, rats treated with CFA successfully developed typical AIA symptoms. […] During the experiment, the body weight, mental state, activity ability, hair color changes, and paw appearance changes of the rats were observed and recorded daily. In addition, on Day 0 of the experiment (baseline period), the basic paw volume of all rats was accurately measured using a plethysmometer, which served as a reference standard for subsequent evaluation of inflammation severity. From Day 13 to Day 28 of the experiment, the paw volume of the rats was measured repeatedly every 3 days. The degree of paw swelling was quantified by calculating the change in paw volume relative to the baseline. […] The cytokine levels in serum were measured. […]

NE [5] = test: NE activity in blood and bone marrow of mice; format: in vivo, C57BL/6 mice; conditions: 30 mg/kg daily gavage, 7 days
Procedure: A total of 25 C57BL/6 mice (6–8 weeks old, weighing approximately 20 g, with equal numbers of males and females) were randomly divided into five groups. Mice in the compound-treated groups were orally administered the compound once daily at doses of 0.3, 3, and 30 mg/kg for 7 consecutive days. […] Mice in the normal group were given an equal volume of normal saline at the same time points. The body weight, death rate, and behavior were observed and recorded daily for one week. After 7 days, bone marrow and blood samples were collected from the mice and lysed using 8% Triton X-100 buffer. The lysates were stored at −20 °C until testing. The activity assays for CTSC and NSPs were performed as described above. The mice were anesthetized and the tissues were taken for H&E staining.

C[C@@H]1C[C@H]2OC(=O)[C@@]3(C)CCC[C@@](C)([C@@H]23)[C@@]1(O)CCc1ccoc1 [Marrubiin, marrubiin]
IC50 at 24 h [1]: > 10 µM | PR3 activity, % of DMSO group (PR3 [2]): 10.3% | NE activity, % of DMSO group (NE [3]): 8.2% | serum PR3 activity, % of control group (PR3 [4]): ~50% | remaining activity rate of NE (NE [5]; blood): ~9.9% | remaining activity rate of NE (NE [5]; bone marrow): ~20.9%
